According to publication PMC9518264, “Design and synthesis of novel quinazolinone-based derivatives as EGFR inhibitors with antitumor activity” (Journal of Enzyme Inhibition and Medicinal Chemistry, 2022):
Like-named read-outs stand apart in the source and are kept apart here.

How the values were obtained:
[1] = test system: CCRF-CEM; assay: cells; assay type: cell-based; details: Homo sapiens, read-out: growth inhibition % (GI%)
[2] = test system: HL-60(TB); assay: cells; assay type: cell-based; details: Homo sapiens
[3] = test system: K-562; assay: cells; assay type: cell-based; details: Homo sapiens
[4] = test system: MOLT-4; assay: cells; assay type: cell-based; details: Homo sapiens
[5] = test system: RPMI-8226; assay: cells; assay type: cell-based; details: Homo sapiens
[6] = test system: SR; assay: cells; assay type: cell-based; details: Homo sapiens, read-out: growth inhibition % (GI%)
[7] = test system: A549/ATCC; assay: cells; assay type: cell-based; details: Homo sapiens
[8] = test system: EKVX; assay: cells; assay type: cell-based; details: Homo sapiens, read-out: growth inhibition % (GI%)
[9] = test system: HOP-62; assay: cells; assay type: cell-based; details: Homo sapiens
[10] = test system: NCI-H226; assay: cells; assay type: cell-based; details: Homo sapiens
[11] = test system: NCI-H322M; assay: cells; assay type: cell-based; details: Homo sapiens, read-out: growth inhibition % (GI%)
[12] = test system: NCI-H460; assay: cells; assay type: cell-based; details: Homo sapiens
[13] = test system: NCI-H522; assay: cells; assay type: cell-based; details: Homo sapiens
[14] = test system: COLO-205; assay: cells; assay type: cell-based; details: Homo sapiens
[15] = test system: HCC-2998; assay: cells; assay type: cell-based; details: Homo sapiens
[16] = test system: HCT-116; assay: cells; assay type: cell-based; details: Homo sapiens
[17] = test system: HCT-15; assay: cells; assay type: cell-based; details: Homo sapiens
[18] = test system: HT29; assay: cells; assay type: cell-based; details: Homo sapiens
[19] = test system: KM12; assay: cells; assay type: cell-based; details: Homo sapiens
[20] = test system: SW-620; assay: cells; assay type: cell-based; details: Homo sapiens
[21] = test system: SF-295; assay: cells; assay type: cell-based; details: Homo sapiens
[22] = test system: SF-539; assay: cells; assay type: cell-based; details: Homo sapiens
[23] = test system: SNB-19; assay: cells; assay type: cell-based; details: Homo sapiens
[24] = test system: SNB-75; assay: cells; assay type: cell-based; details: Homo sapiens
[25] = test system: U251; assay: cells; assay type: cell-based; details: Homo sapiens
[26] = test system: LOX IMIV; assay: cells; assay type: cell-based; details: Homo sapiens, 60 cell, read-out: growth inhibition % (GI%)
[27] = test system: MDA-MB-435; assay: cells; assay type: cell-based; details: Homo sapiens
[28] = test system: SK-MEL-28; assay: cells; assay type: cell-based; details: Homo sapiens
[29] = test system: SK-MEL-5; assay: cells; assay type: cell-based; details: Homo sapiens
[30] = test system: UACC-62; assay: cells; assay type: cell-based; details: Homo sapiens
[31] = test system: IGROV1; assay: cells; assay type: cell-based; details: Homo sapiens
[32] = test system: OVCAR-4; assay: cells; assay type: cell-based; details: Homo sapiens
[33] = test system: NCI/ADR-RES; assay: cells; assay type: cell-based; details: Homo sapiens, read-out: growth inhibition % (GI%)
[34] = test system: SK-OV-3; assay: cells; assay type: cell-based; details: Homo sapiens
[35] = test system: 786-0; assay: cells; assay type: cell-based; details: Homo sapiens
[36] = test system: A498; assay: cells; assay type: cell-based; details: Homo sapiens
[37] = test system: ACHN; assay: cells; assay type: cell-based; details: Homo sapiens, read-out: growth inhibition % (GI%)
[38] = test system: SN12C; assay: cells; assay type: cell-based; details: Homo sapiens, read-out: growth inhibition % (GI%)
[39] = test system: TK-10; assay: cells; assay type: cell-based; details: Homo sapiens
[40] = test system: PC-3; assay: cells; assay type: cell-based; details: Homo sapiens
[41] = test system: DU-145; assay: cells; assay type: cell-based; details: Homo sapiens
[42] = test system: MCF7; assay: cells; assay type: cell-based; details: Homo sapiens
[43] = test system: BT-549; assay: cells; assay type: cell-based; details: Homo sapiens
[44] = test system: panel of 60 tumour cell lines; assay: NCI 60 cell line antiproliferative screening (SRB), whole panel or subpanels (means, ranges, words); assay type: cell-based, human; details: Homo sapiens, 60 cell, mean over the cell line panel; 10 μM; read-out: Mean growth inhibition % (mean GI%)
[45] = test system: MDA-MB-468; assay: NCI 60 cell line antiproliferative screening (SRB), Breast cancer; details: Homo sapiens, MDA-MB-468, read-out: growth inhibition % (GI%)
[46] = test system: OVCAR-3; assay: NCI 60 cell line antiproliferative screening (SRB), Ovarian cancer; details: Homo sapiens, OVCAR-3, read-out: growth inhibition % (GI%)

SMILES: O=C(CSc1nc2ccccc2c(=O)n1-c1ccccc1)NN=Cc1ccc(N2CCCCC2)cc1 [6g, 2-((4-oxo-3-phenyl-3,4-dihydroquinazolin-2-yl)thio)-N'-(4-(piperidin-1-yl)benzylidene) acetohydrazide]
- inhibition at 10 µM ([1]; 10 μM): < 15%
- inhibition at 10 µM ([2]; HL-60(TB), 10 μM, read-out: growth inhibition % (GI%)): < 15%
- inhibition at 10 µM ([3]; K562, K-562, 10 μM, read-out: growth inhibition % (GI%)): 26.8%
- inhibition at 10 µM ([4]; MOLT-4, 10 μM, read-out: growth inhibition % (GI%)): 28.5%
- inhibition at 10 µM ([5]; RPMI-8226, 10 μM, read-out: growth inhibition % (GI%)): 17.6%
- inhibition at 10 µM ([6]; 10 μM): 24.7%
- inhibition at 10 µM ([7]; A549/ATCC, 10 μM, read-out: growth inhibition % (GI%)): 15.1%
- inhibition at 10 µM ([8]; 10 μM): 20.4%
- inhibition at 10 µM ([9]; HOP-62, 10 μM, read-out: growth inhibition % (GI%)): < 15%
- inhibition at 10 µM ([10]; NCI-H226, 10 μM, read-out: growth inhibition % (GI%)): < 15%
- inhibition at 10 µM ([11]; 10 μM): < 15%
- inhibition at 10 µM ([12]; NCI-H460, 10 μM, read-out: growth inhibition % (GI%)): < 15%
- inhibition at 10 µM ([13]; NCI-H522, 10 μM, read-out: growth inhibition % (GI%)): 15.3%
- inhibition at 10 µM ([14]; COLO-205, 10 μM, read-out: growth inhibition % (GI%)): < 15%
- inhibition at 10 µM ([15]; HCC-2998, 10 μM, read-out: growth inhibition % (GI%)): < 15%
- inhibition at 10 µM ([16]; HCT-116, 10 μM, read-out: growth inhibition % (GI%)): 15.5%
- inhibition at 10 µM ([17]; HCT-15, 10 μM, read-out: growth inhibition % (GI%)): 16.2%
- inhibition at 10 µM ([18]; HT-29, HT29, 10 μM, read-out: growth inhibition % (GI%)): < 15%
- inhibition at 10 µM ([19]; KM12, 10 μM, read-out: growth inhibition % (GI%)): < 15%
- inhibition at 10 µM ([20]; SW-620, 10 μM, read-out: growth inhibition % (GI%)): < 15%
- inhibition at 10 µM ([21]; SF-295, 10 μM, read-out: growth inhibition % (GI%)): < 15%
- inhibition at 10 µM ([22]; SF-539, 10 μM, read-out: growth inhibition % (GI%)): < 15%
- inhibition at 10 µM ([23]; SNB-19, 10 μM, read-out: growth inhibition % (GI%)): < 15%
- inhibition at 10 µM ([24]; SNB-75, 10 μM, read-out: growth inhibition % (GI%)): 19.9%
- inhibition at 10 µM ([25]; U-251, U251, 10 μM, read-out: growth inhibition % (GI%)): < 15%
- inhibition at 10 µM ([26]; LOX IMIV, 10 μM): < 15%
- inhibition at 10 µM ([27]; MDA-MB-435, 10 μM, read-out: growth inhibition % (GI%)): < 15%
- inhibition at 10 µM ([28]; SK-MEL-28, 10 μM, read-out: growth inhibition % (GI%)): < 15%
- inhibition at 10 µM ([29]; SK-MEL-5, 10 μM, read-out: growth inhibition % (GI%)): < 15%
- inhibition at 10 µM ([30]; UACC-62, 10 μM, read-out: growth inhibition % (GI%)): < 15%
- inhibition at 10 µM ([31]; IGROV-1, IGROV1, 10 μM, read-out: growth inhibition % (GI%)): < 15%
- inhibition at 10 µM ([32]; OVCAR-4, 10 μM, read-out: growth inhibition % (GI%)): < 15%
- inhibition at 10 µM ([33]; 10 μM): < 15%
- inhibition at 10 µM ([34]; SK-OV-3, 10 μM, read-out: growth inhibition % (GI%)): < 15%
- inhibition at 10 µM ([35]; 786-0, 10 μM, read-out: growth inhibition % (GI%)): < 15%
- inhibition at 10 µM ([36]; A498, 10 μM, read-out: growth inhibition % (GI%)): < 15%
- inhibition at 10 µM ([37]; 10 μM): < 15%
- inhibition at 10 µM ([38]; 10 μM): < 15%
- inhibition at 10 µM ([39]; TK-10, 10 μM, read-out: growth inhibition % (GI%)): < 15%
- inhibition at 10 µM ([40]; PC-3, 10 μM, read-out: growth inhibition % (GI%)): 18.5%
- inhibition at 10 µM ([41]; DU-145, 10 μM, read-out: growth inhibition % (GI%)): < 15%
- inhibition at 10 µM ([42]; MCF7, 10 μM, read-out: growth inhibition % (GI%)): 16.2%
- inhibition at 10 µM ([43]; BT-549, 10 μM, read-out: growth inhibition % (GI%)): < 15%
- inhibition at 10 µM [44]: 4.28%
- inhibition at 10 µM [45]: < 15%
- inhibition at 10 µM [46]: < 15%

SMILES: O=C(CSc1nc2ccccc2c(=O)n1-c1ccc(Cl)cc1)NN=Cc1ccc(N2CCCCC2)cc1 [6j, 2-((3–(4-chlorophenyl)-4-oxo-3,4-dihydroquinazolin-2-yl)thio)-N'-(4-(piperidin-1-yl)benzylidene) acetohydrazide]
- inhibition at 10 µM [1]: < 15%
- inhibition at 10 µM ([2]; HL-60, read-out: growth inhibition % (GI%)): < 15%
- inhibition at 10 µM ([3]; K562, read-out: growth inhibition % (GI%)): 26.4%
- inhibition at 10 µM ([4]; MOLT-4, read-out: growth inhibition % (GI%)): < 15%
- inhibition at 10 µM ([5]; RPMI-8226, read-out: growth inhibition % (GI%)): < 15%
- inhibition at 10 µM [6]: 25.2%
- inhibition at 10 µM ([7]; A549, read-out: growth inhibition % (GI%)): 50.6%
- inhibition at 10 µM [8]: 17.9%
- inhibition at 10 µM ([9]; HOP-62, read-out: growth inhibition % (GI%)): 81.6%
- inhibition at 10 µM ([10]; NCI-H226, read-out: growth inhibition % (GI%)): 61.8%
- inhibition at 10 µM [11]: 23%
- inhibition at 10 µM ([12]; NCI-H460, read-out: growth inhibition % (GI%)): 90.3%
- inhibition at 10 µM ([13]; NCI-H522, read-out: growth inhibition % (GI%)): < 15%
- inhibition at 10 µM ([14]; COLO 205, read-out: growth inhibition % (GI%)): 17.9%
- inhibition at 10 µM ([15]; HCC 2998, read-out: growth inhibition % (GI%)): < 15%
- inhibition at 10 µM ([16]; HCT-116, read-out: growth inhibition % (GI%)): 63.1%
- inhibition at 10 µM ([17]; HCT-15, read-out: growth inhibition % (GI%)): 32.2%
- inhibition at 10 µM ([18]; HT-29, read-out: growth inhibition % (GI%)): 39.1%
- inhibition at 10 µM ([19]; KM12, read-out: growth inhibition % (GI%)): 3.59%
- inhibition at 10 µM ([20]; SW-620, read-out: growth inhibition % (GI%)): 34.1%
- inhibition at 10 µM ([21]; SF-295, read-out: growth inhibition % (GI%)): 23.6%
- inhibition at 10 µM ([22]; SF-539, read-out: growth inhibition % (GI%)): 58.7%
- inhibition at 10 µM ([23]; SNB-19, read-out: growth inhibition % (GI%)): 56.8%
- inhibition at 10 µM ([24]; SNB-75, read-out: growth inhibition % (GI%)): 20.1%
- inhibition at 10 µM ([25]; U-251, read-out: growth inhibition % (GI%)): 49.4%
- inhibition at 10 µM [26]: 56.5%
- inhibition at 10 µM ([27]; MDA-MB-435, read-out: growth inhibition % (GI%)): < 15%
- inhibition at 10 µM ([28]; SK-MEL-28, read-out: growth inhibition % (GI%)): 15.2%
- inhibition at 10 µM ([29]; SK-MEL-5, read-out: growth inhibition % (GI%)): < 15%
- inhibition at 10 µM ([30]; UACC-62, read-out: growth inhibition % (GI%)): 26.5%
- inhibition at 10 µM ([31]; IGROV-1, read-out: growth inhibition % (GI%)): 44.5%
- inhibition at 10 µM ([32]; OVCAR-4, read-out: growth inhibition % (GI%)): 41.4%
- inhibition at 10 µM [33]: 60.1%
- inhibition at 10 µM ([34]; SK-OV-3, read-out: growth inhibition % (GI%)): 69.9%
- inhibition at 10 µM ([35]; 786-0, read-out: growth inhibition % (GI%)): 92.8%
- inhibition at 10 µM ([36]; A498, read-out: growth inhibition % (GI%)): 21.5%
- inhibition at 10 µM [37]: 82.6%
- inhibition at 10 µM [38]: 37.6%
- inhibition at 10 µM ([39]; TK-10, read-out: growth inhibition % (GI%)): < 15%
- inhibition at 10 µM ([40]; PC-3, read-out: growth inhibition % (GI%)): 21.4%
- inhibition at 10 µM ([41]; DU-145, read-out: growth inhibition % (GI%)): 70.9%
- inhibition at 10 µM ([42]; MCF7, read-out: growth inhibition % (GI%)): 32.5%
- inhibition at 10 µM ([43]; BT-549, read-out: growth inhibition % (GI%)): < 15%
- inhibition at 10 µM [44]: 34.2%
- inhibition at 10 µM [45]: 20.5%
- inhibition at 10 µM [46]: 67.2%
